Experimental data from US8318761B2, “Substituted arylsulfonamides as antiviral agents” (Aicuris GmbH & Co. KG, priority 2006, dated 2012).

Key:
[1] = Anti-HCMV cytopathogenicity test, cytostatic effect on uninfected cells; type: cell-based; conditions: human, NHDF cells (human prepuce fibroblasts), 6 days incubation, visual assessment
Method: (§1) Anti-HCMV (Anti-Human Cytomegalovirus) Cytopathogenicity Tests The test compounds are employed as 50 millimolar (mM) solutions in dimethyl sulfoxide (DMSO). Ganciclovir® serves as reference compound. After the addition of 2 μl of the 50, 5, 0.5 and 0.05 mM DMSO stock solutions respectively to 98 μl portions of cell culture medium in row […] for duplicate determinations, 1:2 dilutions are carried out with 50 μl portions of medium up to row 11 of the 96-well plate. The wells in rows 1 and 12 each contain 50 μl of medium. 150 μl of a suspension of 1×10^4 cells (human prepuce fibroblasts [NHDF]) are then pipetted into each of the wells (row 1=cell control) and, in rows 2-12, a mixture of HCMV-infected and uninfected NHDF cells (M.O.I.=0.001-0.003), i.e. 1-3 infected cells per 1000 uninfected cells. Row 12 (without substance) serves as virus control. The final test concentrations are […]. The plates are incubated at 37° C./5% CO2 for 6 days, i.e. until all the cells in the virus controls are infected (100% cytopathogenic effect [CPE]). The wells are then fixed and stained by the addition of a mixture of formalin and Giemsa's dye (30 min), washed with bidistilled water and dried in a drying oven at 50° C. The plates are then assessed visually using an overhead microscope (plaque multiplier from Technomara). The following data can be obtained from the test plates: CC50 (NHDF)=substance concentration in MM at which no visible cytostatic effects on the cells are evident in comparison with the untreated cell control;

HCMV = assay: Anti-HCMV cytopathogenicity test (CPE inhibition); type: cell-based, human cytomegalovirus; conditions: for EC50: Human betaherpesvirus 5, 144 h, HCMV-infected NHDF cells, M.O.I. 0.001-0.003, 6 days, inhibition of CPE by 50%; for SI HCMV: selectivity index = CC50 (NHDF)/EC50 (HCMV)
Method: as §1, with “plates: EC50 (HCMV)=substance” for “plates: CC50 (NHDF)=substance”, “MM” for “MM at”, “which inhibits” for “which no visible cytostatic effects on”, “the CPE (cytopathic effect) by 50%” for “the cells are evident”, “untreated virus” for “untreated cell”, “control; SI (selectivity index)=CC50 (NHDF)/EC50 (HCMV).” for “control;”

[2] = Pharmacokinetical investigations after intravenous or oral administration; type: in vivo; conditions: male Wistar rat
Method: Pharmacokinetical Investigations
The pharmacokinetics of the active substances are investigated after intravenous or oral administration of doses in the range from 1 mg/kg intravenously and 3 mg/kg orally to three male Wistar rats per administration route. In order to make a repeated removal of blood possible a catheter is implanted into the jugular vein of the animals on the day before the experiment. The substances are administered intravenously as well as orally as a solution. Thereby, in most cases a plasma formulation (rat plasma with 1-2% ethanol or DMSO, 2 ml/kg) is used for the intravenous administration and a PEG formulation (10% ethanol, 40% PEG 400, 50% water, 5 ml/kg) is used for the oral administration.
After the administration of the active substance blood samples are collected over 24 h via the catheter into heparin-containing sample tubes. Subsequently to the removal of blood the blood samples are centrifuged and the plasma supernatant is pipetted into Eppendorf tubes. The plasma samples are stored at least −15° C. until the analysis takes place.
For the work-up the samples are thawed. The plasma proteins are subsequently precipitated by the addition of acetonitrile which comprises an internal standard. As internal standard a substance from the same structural class is selected which is structurally as similar as possible to the active compound. For the preparation of calibration samples different concentrations of the active substance are added to aliquots of empty plasma and these are worked up together with the unknown samples. Additionally quality control samples with three different concentrations are prepared which serve to validate the analytical procedure.
The determination of the active substance in the samples takes place by high performance liquid chromatography with mass spectrometrical detection (LC/MS-MS). The active substance concentrations in the unknown samples are determined based on their relative peak heights or areas compared to the calibration curve using the program Concalc for Windows (CCW, Integrierte Labordatensysteme, version 2.5 or later, Bayer AG). Subsequently, the pharmacokinetical parameters are calculated from the plasma concentration development over time individualized to an animal using non-compartimental analysis with the aid of the program KINCALC, version 2.50.02 (Bayer AG, 2001).
The following data can be acquired from these tests:
AUC=total area under the drug-concentration over time curve;
Cmax=maximum concentration;

[3] = 3 mg/kg p.o., solution in 10% ethanol, 40% PEG 400, 50% water, 5 ml/kg

EC50 (HCMV) | half-life ([2]; iv, 1.3 mg/kg i.v., solution in rat plasma with 1% DMSO, 2 ml/kg) | clearance ([2]; iv, 1.3 mg/kg i.v., solution in rat plasma with 1% DMSO, 2 ml/kg, read-out: CLPlasma (converted)) | Vd ([2]; iv, 1.3 mg/kg i.v., solution in rat plasma with 1% DMSO, 2 ml/kg, read-out: Vss) | CLBlood ([2]; 1.3 mg/kg i.v., solution in rat plasma with 1% DMSO, 2 ml/kg) | AUCnorm, p.o. [2, 3] | Cmax, norm, p.o. [2, 3] | bioavailability ([2]; plasma, po, 3 mg/kg p.o., solution in 10% ethanol, 40% PEG 400, 50% water, 5 ml/kg, read-out: F (bioavailability)) | SMILES | CC50 at 6 days [1] | SI HCMV (HCMV)
0.021 µM | – | – | – | – | – | – | – | Cl.N#CC1(C(=O)Nc2cccc(NS(=O)(=O)c3ccc(C#Cc4cccc(N)n4)cc3)c2)CC1 [Example 4, N-{3-[({4-[(6-Aminopyridin-2-yl)ethynyl]phenyl}sulfonyl)amino]phenyl}-1-cyanocyclopropanecarboxamide Hydrochloride] | 47 µM | 2240
0.007 µM | – | – | – | – | – | – | – | N#CC1(C(=O)Nc2cccc(NS(=O)(=O)c3ccc(-c4noc(-c5cccc(N)n5)n4)cc3)c2)CC1 [Example 2, N-{3-[({4-[5-(6-Aminopyridin-2-yl)-1,2,4-oxadiazol-3-yl]phenyl}sulfonyl)amino]phenyl}-1-cyanocyclopropanecarboxamide] | 141 µM | 20140
0.002 µM | – | – | – | – | – | – | – | Cc1c(NC(=O)C2(C#N)CC2)cccc1NS(=O)(=O)c1ccc(-c2noc(-c3cccc(N)n3)n2)cc1 [Example 3, N-{3-[({4-[5-(6-Aminopyridin-2-yl)-1,2,4-oxadiazol-3-yl]phenyl}sulfonyl)amino]-2-methylphenyl}-1-cyanocyclopropanecarboxamide] | 102 µM | 51000
0.011 µM | 4.26 h | 1.07 mL/min/kg | 0.321 L/kg | 2.13 mL/min/kg | 8.58 kg·h/L | 1.08 kg/L | 55.3% | N#CC1(C(=O)Nc2cc(F)cc(NS(=O)(=O)c3ccc(-c4noc(-c5cccc(N)n5)n4)cc3)c2)CC1 [Example 1, N-{3-[({4-[5-(6-Aminopyridin-2-yl)-1,2,4-oxadiazol-3-yl]phenyl}sulfonyl)amino]-5-fluorophenyl}-1-cyanocyclopropanecarboxamide] | 71 µM | 6450
0.026 µM | – | – | – | – | – | – | – | CC(=O)Nc1cccc(-c2nc(-c3ccc(S(=O)(=O)Nc4cc(F)cc(NC(=O)C5(C#N)CC5)c4)cc3)no2)n1 [Example 5, N-{3-[({4-[5-(6-Acetylaminopyridin-2-yl)-1,2,4-oxadiazol-3-yl]phenyl}sulfonyl)amino]-5-fluorophenyl}-1-cyanocyclopropanecarboxamide] | 71 µM | 2730
